The text below walks through data of paper PMC5481828, “Construction of a synthetic metabolic pathway for biosynthesis of the non-natural methionine precursor 2,4-dihydroxybutyric acid” (Nature Communications, 2017).

Each structure is given as a SMILES string.

One test addresses Ec-LysC (Escherichia coli, UniProt P08660). The note with it: 2 mM ATP, 5 mM MgCl2, 50 mM KCl, Hepes pH 7.5, 37 °C.
The next test addresses T1, Ms-Ssr (Metallosphaera sedula, UniProt A4YGN0).
T1 construct: gene Msed_1424
T1 sequence (A4YGN0 1-360): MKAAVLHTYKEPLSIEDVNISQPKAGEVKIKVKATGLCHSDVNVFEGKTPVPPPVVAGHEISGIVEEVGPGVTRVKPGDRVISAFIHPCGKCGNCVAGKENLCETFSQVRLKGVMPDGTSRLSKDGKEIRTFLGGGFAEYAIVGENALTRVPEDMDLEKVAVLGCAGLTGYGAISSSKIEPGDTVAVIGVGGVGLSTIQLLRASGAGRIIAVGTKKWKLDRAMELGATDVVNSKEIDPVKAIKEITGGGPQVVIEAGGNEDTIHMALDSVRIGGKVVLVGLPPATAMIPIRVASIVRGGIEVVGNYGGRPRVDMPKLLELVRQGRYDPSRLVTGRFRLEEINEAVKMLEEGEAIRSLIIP
Description: NAD(P)H oxidation at […] nm. The test is classed as biochemical. To be noted: NADPH 0.2 mM, Hepes pH 7.5, 50 mM KCl, 5 mM MgCl2, 37 °C; read-out: affinity.

A further test concerns the target Bs-Asd (Bacillus subtilis, UniProt Q04797, E218Q). Description: NADPH oxidation, substrate made in situ by malate kinase. Type of test: biochemical. To be noted: biosynthetic direction, 0.2 mM NADPH, 2 mM ATP, 20 mM malate, Hepes pH 7, 37 °C.
Another test deals with T2, Mj-Asd (Methanocaldococcus jannaschii, UniProt Q57658).
T2 sequence (Q57658 1-354): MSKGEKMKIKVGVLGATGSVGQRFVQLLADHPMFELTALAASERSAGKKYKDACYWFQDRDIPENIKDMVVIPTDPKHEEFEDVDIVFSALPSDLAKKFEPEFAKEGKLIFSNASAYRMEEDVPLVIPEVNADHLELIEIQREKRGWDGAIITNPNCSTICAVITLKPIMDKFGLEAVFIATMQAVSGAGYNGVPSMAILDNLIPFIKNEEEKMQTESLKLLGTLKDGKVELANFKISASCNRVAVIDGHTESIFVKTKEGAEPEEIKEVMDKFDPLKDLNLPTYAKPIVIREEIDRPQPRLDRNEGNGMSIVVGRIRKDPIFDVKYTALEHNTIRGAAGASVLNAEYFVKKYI
Described as above. Type of test: biochemical. The note with it: biosynthetic direction, 0.2 mM NADPH, 2 mM ATP, 20 mM malate, Hepes pH 7, 37 °C.

Chain of Bs-Asd (Q04797 whole entry E218Q): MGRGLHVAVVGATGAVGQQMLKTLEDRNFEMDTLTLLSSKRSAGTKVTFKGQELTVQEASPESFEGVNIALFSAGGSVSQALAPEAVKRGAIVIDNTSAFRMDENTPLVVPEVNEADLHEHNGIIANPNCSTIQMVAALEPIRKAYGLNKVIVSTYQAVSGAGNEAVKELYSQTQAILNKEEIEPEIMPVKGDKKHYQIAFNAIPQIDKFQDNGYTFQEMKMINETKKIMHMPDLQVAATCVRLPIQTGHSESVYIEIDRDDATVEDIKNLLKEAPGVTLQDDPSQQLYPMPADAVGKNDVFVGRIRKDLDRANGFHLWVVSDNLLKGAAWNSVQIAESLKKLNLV
Chain of Ec-LysC (P08660 whole entry): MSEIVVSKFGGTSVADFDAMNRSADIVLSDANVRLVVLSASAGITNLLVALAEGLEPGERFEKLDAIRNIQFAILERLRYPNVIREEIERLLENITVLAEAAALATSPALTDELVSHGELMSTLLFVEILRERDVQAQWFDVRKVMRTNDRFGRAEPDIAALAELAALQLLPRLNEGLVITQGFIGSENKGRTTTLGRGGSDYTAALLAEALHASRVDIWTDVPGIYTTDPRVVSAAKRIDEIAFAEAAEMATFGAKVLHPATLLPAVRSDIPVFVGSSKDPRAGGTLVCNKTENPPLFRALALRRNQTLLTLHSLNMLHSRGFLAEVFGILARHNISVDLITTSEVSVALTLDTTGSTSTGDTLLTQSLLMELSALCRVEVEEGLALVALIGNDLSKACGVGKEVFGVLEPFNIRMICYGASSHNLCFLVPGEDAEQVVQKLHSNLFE

Take `N[C@@H](CC(=O)O)C(=O)O` [(L)-aspartate]: the Km result at Ec-LysC was “Catalytic efficiency (kcat/Km) of wild-type aspartate kinase”. On to `O=CC[C@H](O)C(=O)O` [MSA, malate semialdehyde], for which the Km on Ms-Ssr was 1.1 mM.

As to `O=C(C[C@H](O)C(=O)O)OP(=O)(O)O` [malyl-P, malyl-4-phosphate], the “NADPH oxidation, substrate made in situ by malate kinase” value was “Bs-Asd E218Q mutant enzyme, which displayed an almost eightfold increased activity on malyl-P” at Bs-Asd; “Enzymatic activities of wild-type Bs-Asd and Mj-Asd on malyl-P were approximately threefold lower” at Mj-Asd.
